Source: paper PMC11304990, “Identification of mitochondrial ATP synthase as the cellular target of Ru-polypyridyl-β-carboline complexes by affinity-based protein profiling” (National Science Review, 2024)

Assays:
prostate cancer (PC3) = experiment: MTT antiproliferative assay, PC3; type: cell-based, human; conditions: 72 h
From the text: Ru3–Ru9 also show a certain selectivity for cancer cells over normal cells, and Ru2, Ru3, Ru5 and Ru9 show higher selectivity index (SI) values than the other complexes.
PA-BPP was then used to confirm the molecular targets of Ru5 by modifying it with a ‘minimalist’ biorthogonal handle-containing photo-cross-linker. Through our structure–activity relationship analysis and comparison with other ruthenium complexes utilizing phen as the auxiliary ligands with similar coordination structures (using cisplatin as a control), we propose that the β-carboline ligands play an important role in antiproliferative activity. To maintain the binding characteristics of the β-carboline moiety with the targeted biomolecules, we linked the photo-cross-linker to one of the auxiliary ligands of Ru5.

[1] = target: ATPase (mitochondrial ATP synthase); experiment: Inhibition of the enzymatic activity of ATPase in vitro; type: biochemical; conditions: read-out: Inhibition constant (Ki)
Description: (§1) Figure 1. Validation of ATP5F1 as the molecular target of Ru5. (A) Proteins pulled down by streptavidin from A549 cells treated with Ru5a followed by PAL. The cells were treated with Ru5a (50 μM) for 12 h and irradiated with UV light for 20 min. (B) The top five peptides enriched by Ru5a-mediated PAL were identified with the assistance of SILAC-based chemoproteomic studies. H1F0: H1 histone family member 0; HIST4H4: histone cluster 4 H4; HIST3H2BB: histone cluster 3 H2B family member b; ATP5F1E: ATP synthase F1 subunit epsilon; HIST1H2AJ: histone cluster 1 H2A family member J. (C) Pull-down western blotting analysis of ATPase in A549 cells treated with Ru5a. (D) Cellular Ru content in cells treated with Ru5/Ru5a (20 μM, 12 h) measured by ICP-MS. (E) Impact of Ru5/Ru5a (10 μM) on the thermal stability of ATP5F1 measured by CETSA. (F) Impact on the anticancer activities of Ru5/Ru5a against wild type and ATPase knocking down (by siRNA) A549 cells. The relative cellular viability was calculated using the cells without drug treatment in each group as the control group. (G) Inhibition of Ru5/Ru5a on the enzymatic activity of ATPase. (-)-blebbistatin was used as the positive control. (H) Molecular docking of Ru5 with ATPase (PDB: 3ZIA). The red dashes indicate the hydrogen bonds formed between Ru5 and the amino acid residues (SER38 and GLN39). The yellow dashes indicate the hydrophobic interaction between Ru5 and the amino acid residues (ASN15 and GLN19). Data are presented as means ± SD from three independent experiments. TEXT PRINTED IN THE PICTURE: (B) Ru5a: Log2 (fold change) (Ru5a/DMSO): 1.43 (Protein name: H1F0); Log2 (fold change) (Ru5a/DMSO): 1.23 (Protein name: HIST4H4); Log2 (fold change) (Ru5a/DMSO): 1.22 (Protein name: HIST3H2BB); Log2 (fold change) (Ru5a/DMSO): 1.21 (Protein name: ATP5F1E); Log2 (fold change) (Ru5a/DMSO): 1.12 (Protein name: HIST1H2AJ) DOUBTS OF THE COPYIST ABOUT THIS PICTURE: Panel B: the table rows are proteins enriched by Ru5a, not separate substances. […]

mitochondria = experiment: Subcellular Ru content by ICP-MS; type: cell-based; conditions: 20 μM, 12 h
Description: as §1, with “GLN39).” for “GLN39). The yellow dashes indicate the hydrophobic interaction between Ru5 and the amino acid residues (ASN15 and GLN19). Data are presented as means ± SD from three independent experiments. TEXT PRINTED IN THE PICTURE: (B) Ru5a: Log2 (fold change) (Ru5a/DMSO): 1.43 (Protein name: H1F0); Log2 (fold change) (Ru5a/DMSO): 1.23 (Protein name: HIST4H4); Log2 (fold change) (Ru5a/DMSO): 1.22 (Protein name: HIST3H2BB); Log2 (fold change) (Ru5a/DMSO): 1.21 (Protein name: ATP5F1E); Log2 (fold change) (Ru5a/DMSO): 1.12 (Protein name: HIST1H2AJ) DOUBTS OF THE COPYIST ABOUT THIS PICTURE: Panel B: the table rows are proteins enriched by Ru5a, not separate substances.”

A549 cells [2] = experiment: Wound healing and transwell migration assays; type: cell-based, human; conditions: 5 μM
Description: Figure 4. Ru5 induces mitophagy and ferroptosis and inhibits EMT in vitro. (A) TEM images of A549 cells treated with vehicle (1% DMSO) or Ru5 (10 μM, 12 h). Red rectangles represent the region enlarged. Scale bar: 5 μm and 500 nm (enlarged). (B) The morphological examination of mitochondria in A549 cells treated with Ru5 (10 μM) for the indicated time intervals. MTG: λex = 514 nm; λem = 540 ± 20 nm. LTDR: λex = 633 nm; λem = 700 ± 20 nm. Scale bar: 20 μm. (C) Western blotting analysis showing the impact of Ru5 (24 h) on the expression of proteins related to mitochondrial dysfunction and ferroptosis. (D and E) The impact of different inhibitors on antiproliferative activity of Ru5 (24 h). (F) RT-qPCR analysis of EMT-related genes in A549 cells after Ru5 (10 μM, 12 h) treatment. (G) The impact of Ru5 (5 μM) on the migration of A549 cells was measured by a wound healing assay. Scale bar: 100 μm. (H) Quantitative analysis of the impact of Ru5 on wound healing. (I) Selective images of the impact of Ru5 (5 μM, 48 h) on the migration of A549 cells detected by transwell assay. Scale bar: 100 μm. […] Firstly, real-time quantitative polymerase chain reaction (RT-qPCR) experiments (Fig. 4F) confirm that Ru5 can down-regulate genes including CDH1 (cadherin 1), FN1 (fibronectin 1) and MMP2 (matrix metallopeptidase 2).

A549 cells [3] = experiment: Anticancer activity in wild type vs ATPase siRNA knockdown cells; type: cell-based, human; conditions: compared to wild-type cells
Description: as §1, with “GLN39).” for “GLN39). The yellow dashes indicate the hydrophobic interaction between Ru5 and the amino acid residues (ASN15 and GLN19). Data are presented as means ± SD from three independent experiments. TEXT PRINTED IN THE PICTURE: (B) Ru5a: Log2 (fold change) (Ru5a/DMSO): 1.43 (Protein name: H1F0); Log2 (fold change) (Ru5a/DMSO): 1.23 (Protein name: HIST4H4); Log2 (fold change) (Ru5a/DMSO): 1.22 (Protein name: HIST3H2BB); Log2 (fold change) (Ru5a/DMSO): 1.21 (Protein name: ATP5F1E); Log2 (fold change) (Ru5a/DMSO): 1.12 (Protein name: HIST1H2AJ) DOUBTS OF THE COPYIST ABOUT THIS PICTURE: Panel B: the table rows are proteins enriched by Ru5a, not separate substances.”

In the case of `F[P-](F)(F)(F)(F)F.F[P-](F)(F)(F)(F)F.[Ru+2].c1ccc2c(c1)[nH]c1c(-c3ncc[nH]3)nccc12.c1cnc2c(c1)ccc1cccnc12.c1cnc2c(c1)ccc1cccnc12` [Ru5], the IC50 (prostate cancer (PC3)) is reported as 2.7 ± 0.4 µM, the Ki [1] is reported as 6.2 ± 1.4 µM and the “Subcellular location (cellular Ru content)” value (mitochondria) is reported as “mainly located in mitochondria”. The “Migration rates of A549 cells” value (A549 cells [2]) was “markedly decrease” and the “Effect of siRNA-mediated knockdown of ATPase on anticancer effects” value (A549 cells [3]) was “alleviates”.
